In US10131652B2, “Pyrimidinyloxy benzene derivatives as herbicides” (E. I. DU PONT DE NEMOURS AND COMPANY, priority 2014, dated 2018):
Read-outs that look alike come from different tables or passages of the source.

Assays:
Type in all cases: in vivo
[1] = test system: soybean (Glycine max); experiment: Test D pre-/postemergence plant response; details: Glycine max; for plant injury at 125 g/ha: 125 g ai/ha
In short: (§1)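 Each compound, in non-phytotoxic solvent with surfactant, was sprayed onto soil right after sowing or onto young plants 2 to 18 cm tall. After 13 to 15 days under greenhouse conditions, effects were judged visually against controls on a 0 (no effect) to 100 (complete control) scale.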

[2] = test system: corn (Zea mays); experiment: Test D pre-/postemergence plant response; details: Zea mays; for Corn plant response rating (crop injury, 0 = no effect, 100 = complete kill) at 62 g/ha: 62 g ai/ha
In short: as §1

[3] = test system: Italian ryegrass (Lolium multiflorum); experiment: Test D pre-/postemergence plant response; details: Lolium multiflorum; for pest or weed control at 16 g/ha: 16 g ai/ha; for pest or weed control at 31 g/ha: 31 g ai/ha; for pest or weed control at 62 g/ha: 62 g ai/ha; for pest or weed control at 125 g/ha: 125 g ai/ha
In short: as §1

[4] = test system: pigweed (Amaranthus retroflexus); experiment: Test D pre-/postemergence plant response; details: Amaranthus retroflexus; for pest or weed control at 16 g/ha: 16 g ai/ha; for pest or weed control at 31 g/ha: 31 g ai/ha; for pest or weed control at 62 g/ha: 62 g ai/ha; for pest or weed control at 125 g/ha: 125 g ai/ha
In short: as §1

[5] = test system: ragweed (common ragweed, Ambrosia elatior); experiment: Test D pre-/postemergence plant response; details: Ambrosia artemisiifolia; for pest or weed control at 16 g/ha: 16 g ai/ha; for pest or weed control at 31 g/ha: 31 g ai/ha; for pest or weed control at 62 g/ha: 62 g ai/ha; for pest or weed control at 125 g/ha: 125 g ai/ha
In short: as §1

[6] = test system: morningglory (Ipomoea coccinea); experiment: Test D pre-/postemergence plant response; details: Ipomoea; for pest or weed control at 16 g/ha: 16 g ai/ha; for pest or weed control at 31 g/ha: 31 g ai/ha; for pest or weed control at 62 g/ha: 62 g ai/ha; for pest or weed control at 125 g/ha: 125 g ai/ha
In short: as §1

[7] = test system: blackgrass (Alopecurus myosuroides); experiment: Test B postemergence plant response; details: Postemergence, 1000 g ai/ha; 0 to 100 scale (0 no effect, 100 complete control)
In short: (§2)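 Pots, loam soil + sand; postemergence treatment at 1–2 leaf stage, 2–10 cm; greenhouse ~10 d; visual injury score 0 (none) to 100 (complete control) relative to untreated controls.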

[8] = test system: galium (catchweed bedstraw, Galium aparine); experiment: Test B postemergence plant response; details: Postemergence, 1000 g ai/ha; 0 to 100 scale (0 no effect, 100 complete control)
In short: as §2

[9] = post-emergence, Postemergence, scale 0 to 100 (0 no effect, 100 complete control), read-out: Ryegrass, Italian plant response rating
[10] = post-emergence, Postemergence, scale 0 to 100, 0 no effect, 100 complete control, read-out: Plant response rating, Ryegrass, Italian
[11] = pre-emergence, Preemergence, scale 0 to 100 (0 no effect, 100 complete control), read-out: Plant response rating, Ryegrass, Italian
[12] = post-emergence, Postemergence, scale 0 to 100 (0 no effect, 100 complete control), read-out: Pigweed plant response rating
[13] = post-emergence, Postemergence, scale 0 to 100, 0 no effect, 100 complete control, read-out: Plant response rating, Pigweed
[14] = pre-emergence, Preemergence, scale 0 to 100 (0 no effect, 100 complete control), read-out: Plant response rating, Pigweed
[15] = post-emergence, Postemergence, scale 0 to 100 (0 no effect, 100 complete control), read-out: Ragweed plant response rating
[16] = post-emergence, Postemergence, scale 0 to 100, 0 no effect, 100 complete control, read-out: Plant response rating, Ragweed
[17] = pre-emergence, Preemergence, scale 0 to 100 (0 no effect, 100 complete control), read-out: Plant response rating, Ragweed
[18] = post-emergence, Postemergence, scale 0 to 100 (0 no effect, 100 complete control), read-out: Morningglory plant response rating
[19] = post-emergence, Postemergence, scale 0 to 100, 0 no effect, 100 complete control, read-out: Plant response rating, Morningglory
[20] = pre-emergence, Preemergence, scale 0 to 100 (0 no effect, 100 complete control), read-out: Plant response rating, Morningglory

**Q.** How did the plant injury at 125 g/ha ([1]; post-emergence, Postemergence, scale 0 to 100, 0 no effect, 100 complete control, read-out: Plant response rating, Soybean) turn out when `Fc1cccc(Oc2ncc(Cl)cn2)c1-c1cc(C(F)F)on1` [Compound 55, 5-chloro-2-[2-[5-(difluoromethyl)-3-isoxazolyl]-3-fluorophenoxy]pyrimidine] was run?
**A.** The plant injury at 125 g/ha was 95%.

**Q.** What about the plant injury at 125 g/ha ([1]; pre-emergence, Preemergence, read-out: Plant response rating (scale 0 to 100), Soybean) of the same molecule?
**A.** Its plant injury at 125 g/ha is 98%.

**Q.** And the plant injury at 16 g/ha ([1]; pre-emergence, Preemergence, 16 g ai/ha, scale 0 to 100 (0 no effect, 100 complete control), read-out: Plant response rating, Soybean)?
**A.** The plant injury at 16 g/ha was 25%.

**Q.** And the plant injury at 31 g/ha ([1]; pre-emergence, Preemergence, 31 g ai/ha, scale 0 to 100 (0 no effect, 100 complete control), read-out: Plant response rating, Soybean)?
**A.** The plant injury at 31 g/ha was 35%.

**Q.** What about the plant injury at 62 g/ha ([1]; pre-emergence, Preemergence, 62 g ai/ha, scale 0 to 100 (0 no effect, 100 complete control), read-out: Plant response rating, Soybean) of the same molecule?
**A.** The plant injury at 62 g/ha was 95%.

**Q.** What about the plant injury at 16 g/ha ([2]; post-emergence, Postemergence, 16 g ai/ha, scale 0 to 100 (0 no effect, 100 complete control), read-out: Corn plant response rating) of the same molecule?
**A.** The plant injury at 16 g/ha was 10%.

**Q.** And the plant injury at 31 g/ha ([2]; post-emergence, Postemergence, 31 g ai/ha, scale 0 to 100 (0 no effect, 100 complete control), read-out: Corn plant response rating)?
**A.** Its plant injury at 31 g/ha is 10%.

**Q.** What about the Corn plant response rating (crop injury, 0 = no effect, 100 = complete kill) at 62 g/ha ([2]; post-emergence, Postemergence, scale 0 to 100, 0 no effect, 100 complete control) of the same molecule?
**A.** The Corn plant response rating (crop injury, 0 = no effect, 100 = complete kill) at 62 g/ha was 10%.

**Q.** What about the Corn plant response rating (crop injury, 0 = no effect, 100 = complete kill) at 125 g/ha ([2]; post-emergence, Postemergence, 125 g ai/ha, scale 0 to 100, 0 no effect, 100 complete control) of the same molecule?
**A.** The Corn plant response rating (crop injury, 0 = no effect, 100 = complete kill) at 125 g/ha was 20%.

**Q.** What about the plant injury at 125 g/ha ([2]; pre-emergence, Preemergence, 125 g ai/ha, read-out: Plant response rating (scale 0 to 100), Corn) of the same molecule?
**A.** Its plant injury at 125 g/ha is 80%.

**Q.** What about the Corn plant response rating (crop injury, 0 = no effect, 100 = complete kill) at 16 g/ha ([2]; pre-emergence, Preemergence, 16 g ai/ha, scale 0 to 100 (0 no effect, 100 complete control)) of the same molecule?
**A.** Its Corn plant response rating (crop injury, 0 = no effect, 100 = complete kill) at 16 g/ha is 5%.

**Q.** What about the Corn plant response rating (crop injury, 0 = no effect, 100 = complete kill) at 31 g/ha ([2]; pre-emergence, Preemergence, 31 g ai/ha, scale 0 to 100 (0 no effect, 100 complete control)) of the same molecule?
**A.** The Corn plant response rating (crop injury, 0 = no effect, 100 = complete kill) at 31 g/ha was 20%.

**Q.** And the Corn plant response rating (crop injury, 0 = no effect, 100 = complete kill) at 62 g/ha ([2]; pre-emergence, Preemergence, scale 0 to 100 (0 no effect, 100 complete control))?
**A.** Its Corn plant response rating (crop injury, 0 = no effect, 100 = complete kill) at 62 g/ha is 35%.

**Q.** What about the pest or weed control at 16 g/ha [3, 9] of the same molecule?
**A.** Its pest or weed control at 16 g/ha is 0%.

**Q.** What about the pest or weed control at 31 g/ha [3, 9] of the same molecule?
**A.** The pest or weed control at 31 g/ha was 5%.

**Q.** And the pest or weed control at 62 g/ha [3, 10]?
**A.** Its pest or weed control at 62 g/ha is 10%.

**Q.** What about the pest or weed control at 125 g/ha [3, 10] of the same molecule?
**A.** Its pest or weed control at 125 g/ha is 15%.

**Q.** And the pest or weed control at 125 g/ha ([3]; pre-emergence, Preemergence, read-out: Plant response rating (scale 0 to 100), Ryegrass, Italian)?
**A.** The pest or weed control at 125 g/ha was 95%.

**Q.** What about the pest or weed control at 16 g/ha [3, 11] of the same molecule?
**A.** Its pest or weed control at 16 g/ha is 15%.

**Q.** What about the pest or weed control at 31 g/ha [3, 11] of the same molecule?
**A.** Its pest or weed control at 31 g/ha is 35%.

**Q.** What about the pest or weed control at 62 g/ha [3, 11] of the same molecule?
**A.** The pest or weed control at 62 g/ha was 85%.

**Q.** And the pest or weed control at 16 g/ha [4, 12]?
**A.** Its pest or weed control at 16 g/ha is 85%.

**Q.** And the pest or weed control at 31 g/ha [4, 12]?
**A.** The pest or weed control at 31 g/ha was 85%.

**Q.** What about the pest or weed control at 62 g/ha [4, 13] of the same molecule?
**A.** Its pest or weed control at 62 g/ha is 98%.

**Q.** What about the pest or weed control at 125 g/ha [4, 13] of the same molecule?
**A.** Its pest or weed control at 125 g/ha is 100%.

**Q.** And the pest or weed control at 125 g/ha ([4]; pre-emergence, Preemergence, read-out: Plant response rating (scale 0 to 100), Pigweed)?
**A.** The pest or weed control at 125 g/ha was 100%.

**Q.** What about the pest or weed control at 16 g/ha [4, 14] of the same molecule?
**A.** The pest or weed control at 16 g/ha was 100%.

**Q.** What about the pest or weed control at 31 g/ha [4, 14] of the same molecule?
**A.** The pest or weed control at 31 g/ha was 100%.

**Q.** And the pest or weed control at 62 g/ha [4, 14]?
**A.** The pest or weed control at 62 g/ha was 100%.

**Q.** And the pest or weed control at 16 g/ha [5, 15]?
**A.** Its pest or weed control at 16 g/ha is 25%.

**Q.** And the pest or weed control at 31 g/ha [5, 15]?
**A.** The pest or weed control at 31 g/ha was 40%.

**Q.** What about the pest or weed control at 62 g/ha [5, 16] of the same molecule?
**A.** The pest or weed control at 62 g/ha was 65%.

**Q.** And the pest or weed control at 125 g/ha [5, 16]?
**A.** The pest or weed control at 125 g/ha was 90%.

**Q.** What about the pest or weed control at 125 g/ha ([5]; pre-emergence, Preemergence, read-out: Plant response rating (scale 0 to 100), Ragweed) of the same molecule?
**A.** The pest or weed control at 125 g/ha was 95%.

**Q.** And the pest or weed control at 16 g/ha [5, 17]?
**A.** The pest or weed control at 16 g/ha was 70%.

**Q.** And the pest or weed control at 31 g/ha [5, 17]?
**A.** Its pest or weed control at 31 g/ha is 75%.

**Q.** What about the pest or weed control at 62 g/ha [5, 17] of the same molecule?
**A.** Its pest or weed control at 62 g/ha is 90%.

**Q.** What about the pest or weed control at 16 g/ha [6, 18] of the same molecule?
**A.** The pest or weed control at 16 g/ha was 70%.

**Q.** What about the pest or weed control at 31 g/ha [6, 18] of the same molecule?
**A.** The pest or weed control at 31 g/ha was 70%.

**Q.** And the pest or weed control at 62 g/ha [6, 19]?
**A.** The pest or weed control at 62 g/ha was 80%.

**Q.** What about the pest or weed control at 125 g/ha [6, 19] of the same molecule?
**A.** Its pest or weed control at 125 g/ha is 85%.

**Q.** What about the pest or weed control at 125 g/ha ([6]; pre-emergence, Preemergence, read-out: Plant response rating (scale 0 to 100), Morningglory) of the same molecule?
**A.** Its pest or weed control at 125 g/ha is 100%.

**Q.** What about the pest or weed control at 16 g/ha [6, 20] of the same molecule?
**A.** Its pest or weed control at 16 g/ha is 10%.

**Q.** And the pest or weed control at 31 g/ha [6, 20]?
**A.** Its pest or weed control at 31 g/ha is 50%.

**Q.** And the pest or weed control at 62 g/ha [6, 20]?
**A.** The pest or weed control at 62 g/ha was 100%.

**Q.** And the “Plant response rating, Blackgrass” value [7]?
**A.** The value was 100.

**Q.** And the “Plant response rating, Galium” value [8]?
**A.** Its value is 100.
